pIC50: −log10 of the molar value.
System: LG0703-F948-PDC complex spheroid viability
Experiment: Anticancer human tumor LG0703-F948-PDC patient-derived lung adenocarcinoma cell line growth inhibition [RAS]
Settings: for pIC50: curve of first compound; for viability, T/C: stronger effect = lower value; active means viability on the fitted dose curve at most 10% of control; inactive means the rest
Outline: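 Agents were tested in combination matrices in half-log decrements from a top concentration at or near clinical Cmax (10 microM if undetermined). Targets were multi-cell spheroids of tumour lines plus HUVEC and MSC stromal cells.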
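Further: spheroids exposed to agents for 7 days.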
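Wherever viability, T/C is given: 100% = DMSO vehicle wells.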

CC(=O)OC12COC1CC(O)C1(C)C(=O)C(O)C3=C(C)C(OC(=O)C(O)C(NC(=O)OC(C)(C)C)c4ccccc4)CC(O)(C(OC(=O)c4ccccc4)C21)C3(C)C (stereo unspecified) + C=CC(=O)N1CCN(c2nc(OCC3CCCN3C)nc3c(F)c(-c4nc(N)cc(C)c4C(F)(F)F)c(Cl)cc23)C(C)C1
> 7.50: pIC50 (second compound 0.00316 µM) | pIC50 (second compound 0.01 µM) | pIC50 (second compound 0.0316 µM) | pIC50 (second compound 0.1 µM) | pIC50 (second compound 0.316 µM) | pIC50 (second compound 1 µM)
inactive: viability, T/C (second compound 0.00316 µM, first compound 0.0316 µM) 26.8% | viability, T/C (second compound 0.00316 µM, first compound 0.1 µM) 25.4% | viability, T/C (second compound 0.00316 µM, first compound 0.316 µM) 22.2% | viability, T/C (second compound 0.00316 µM, first compound 1 µM) 23.7% | viability, T/C (second compound 0.00316 µM, first compound 3.16 µM) 29.5% | viability, T/C (second compound 0.00316 µM, first compound 10 µM) 27.1% | viability, T/C (second compound 0.01 µM, first compound 0.0316 µM) 23.1% | viability, T/C (second compound 0.01 µM, first compound 0.1 µM) 24.4% | viability, T/C (second compound 0.01 µM, first compound 0.316 µM) 26.5% | viability, T/C (second compound 0.01 µM, first compound 1 µM) 23.5% | viability, T/C (second compound 0.01 µM, first compound 3.16 µM) 30.9% | viability, T/C (second compound 0.01 µM, first compound 10 µM) 27.5% | viability, T/C (second compound 0.0316 µM, first compound 0.0316 µM) 28.5% | viability, T/C (second compound 0.0316 µM, first compound 0.1 µM) 26.2% | viability, T/C (second compound 0.0316 µM, first compound 0.316 µM) 26.1% | viability, T/C (second compound 0.0316 µM, first compound 1 µM) 30.7% | viability, T/C (second compound 0.0316 µM, first compound 3.16 µM) 22.3% | viability, T/C (second compound 0.0316 µM, first compound 10 µM) 29% | viability, T/C (second compound 0.1 µM, first compound 0.0316 µM) 22.1% | viability, T/C (second compound 0.1 µM, first compound 0.1 µM) 26.4% | viability, T/C (second compound 0.1 µM, first compound 0.316 µM) 28.6% | viability, T/C (second compound 0.1 µM, first compound 1 µM) 28.8% | viability, T/C (second compound 0.1 µM, first compound 3.16 µM) 27.4% | viability, T/C (second compound 0.1 µM, first compound 10 µM) 24.7% | viability, T/C (second compound 0.316 µM, first compound 0.0316 µM) 24.9% | viability, T/C (second compound 0.316 µM, first compound 0.1 µM) 24% | viability, T/C (second compound 0.316 µM, first compound 0.316 µM) 26.4% | viability, T/C (second compound 0.316 µM, first compound 1 µM) 30.4% | viability, T/C (second compound 0.316 µM, first compound 3.16 µM) 28.1% | viability, T/C (second compound 0.316 µM, first compound 10 µM) 23.6% | viability, T/C (second compound 1 µM, first compound 0.0316 µM) 31.5% | viability, T/C (second compound 1 µM, first compound 0.1 µM) 27.3% | viability, T/C (second compound 1 µM, first compound 0.316 µM) 27.9% | viability, T/C (second compound 1 µM, first compound 1 µM) 29.2% | viability, T/C (second compound 1 µM, first compound 3.16 µM) 33.5% | viability, T/C (second compound 1 µM, first compound 10 µM) 32%

CCc1c2c(nc3ccc(O)cc13)-c1cc3c(c(=O)n1C2)COC(=O)[C@]3(O)CC + C#Cc1c(F)ccc2cc(O)cc(-c3ncc4c(N5CC6CCC(C5)N6)nc(OCC56CCCN5CC(F)C6)nc4c3F)c12
7.46: pIC50 (second compound 1 µM)
7.49: pIC50 (second compound 3.16 µM)
7.44: pIC50 (second compound 0.1 µM)
inactive: viability, T/C (second compound 0.0316 µM, first compound 0.000949 µM) 98.4% | viability, T/C (second compound 0.0316 µM, first compound 0.003 µM) 90.5% | viability, T/C (second compound 0.0316 µM, first compound 0.00949 µM) 72.3% | viability, T/C (second compound 0.0316 µM, first compound 0.03 µM) 48.3% | viability, T/C (second compound 0.0316 µM, first compound 0.0949 µM) 41.7% | viability, T/C (second compound 0.0316 µM, first compound 0.3 µM) 19.7% | viability, T/C (second compound 0.1 µM, first compound 0.000949 µM) 92.4% | viability, T/C (second compound 0.1 µM, first compound 0.003 µM) 91.1% | viability, T/C (second compound 0.1 µM, first compound 0.00949 µM) 77.6% | viability, T/C (second compound 0.1 µM, first compound 0.03 µM) 49.8% | viability, T/C (second compound 0.1 µM, first compound 0.0949 µM) 36.4% | viability, T/C (second compound 0.1 µM, first compound 0.3 µM) 20.1% | viability, T/C (second compound 0.316 µM, first compound 0.000949 µM) 85.3% | viability, T/C (second compound 0.316 µM, first compound 0.003 µM) 77.7% | viability, T/C (second compound 0.316 µM, first compound 0.00949 µM) 81.5% | viability, T/C (second compound 0.316 µM, first compound 0.03 µM) 51.7% | viability, T/C (second compound 0.316 µM, first compound 0.0949 µM) 41.4% | viability, T/C (second compound 0.316 µM, first compound 0.3 µM) 20.2% | viability, T/C (second compound 1 µM, first compound 0.000949 µM) 65.5% | viability, T/C (second compound 1 µM, first compound 0.003 µM) 61.7% | viability, T/C (second compound 1 µM, first compound 0.00949 µM) 61.7% | viability, T/C (second compound 1 µM, first compound 0.03 µM) 50.9% | viability, T/C (second compound 1 µM, first compound 0.0949 µM) 38.4% | viability, T/C (second compound 1 µM, first compound 0.3 µM) 25.3% | viability, T/C (second compound 3.16 µM, first compound 0.000949 µM) 58.5% | viability, T/C (second compound 3.16 µM, first compound 0.003 µM) 60.3% | viability, T/C (second compound 3.16 µM, first compound 0.00949 µM) 50.3% | viability, T/C (second compound 3.16 µM, first compound 0.03 µM) 52.7% | viability, T/C (second compound 3.16 µM, first compound 0.0949 µM) 30.4% | viability, T/C (second compound 3.16 µM, first compound 0.3 µM) 17% | viability, T/C (second compound 10 µM, first compound 0.000949 µM) 41% | viability, T/C (second compound 10 µM, first compound 0.003 µM) 49.4% | viability, T/C (second compound 10 µM, first compound 0.00949 µM) 46.9% | viability, T/C (second compound 10 µM, first compound 0.03 µM) 33.9% | viability, T/C (second compound 10 µM, first compound 0.0949 µM) 30.4% | viability, T/C (second compound 10 µM, first compound 0.3 µM) 15.7%
7.42: pIC50 (second compound 0.0316 µM)
7.32: pIC50 (second compound 0.316 µM)
> 9.02: pIC50 (second compound 10 µM)

CCN1CCN(Cc2ccc(Nc3ncc(F)c(-c4cc(F)c5nc(C)n(C(C)C)c5c4)n3)nc2)CC1 + CCn1c(-c2cc(N3CCN(C)CC3)cnc2C(C)OC)c2c3cc(ccc31)-c1csc(n1)CC(NC(=O)C1CC1C)C(=O)N1CCCC(N1)C(=O)OCC(C)(C)C2
< 6.00: pIC50 (second compound 0.000949 µM) | pIC50 (second compound 0.003 µM)
> 8.50: pIC50 (second compound 0.00949 µM) | pIC50 (second compound 0.03 µM) | pIC50 (second compound 0.0949 µM) | pIC50 (second compound 0.3 µM)
inactive: viability, T/C (second compound 0.000949 µM, first compound 0.00316 µM) 82% | viability, T/C (second compound 0.000949 µM, first compound 0.01 µM) 68% | viability, T/C (second compound 0.000949 µM, first compound 0.0316 µM) 60.8% | viability, T/C (second compound 0.000949 µM, first compound 0.1 µM) 68.2% | viability, T/C (second compound 0.000949 µM, first compound 0.316 µM) 63.9% | viability, T/C (second compound 0.000949 µM, first compound 1 µM) 52% | viability, T/C (second compound 0.003 µM, first compound 0.00316 µM) 58.2% | viability, T/C (second compound 0.003 µM, first compound 0.01 µM) 49.1% | viability, T/C (second compound 0.003 µM, first compound 0.0316 µM) 47.7% | viability, T/C (second compound 0.003 µM, first compound 0.1 µM) 53.2% | viability, T/C (second compound 0.003 µM, first compound 0.316 µM) 57% | viability, T/C (second compound 0.003 µM, first compound 1 µM) 48.9% | viability, T/C (second compound 0.00949 µM, first compound 0.00316 µM) 26.1% | viability, T/C (second compound 0.00949 µM, first compound 0.01 µM) 24.8% | viability, T/C (second compound 0.00949 µM, first compound 0.0316 µM) 28.4% | viability, T/C (second compound 0.00949 µM, first compound 0.1 µM) 22% | viability, T/C (second compound 0.00949 µM, first compound 0.316 µM) 31.7% | viability, T/C (second compound 0.00949 µM, first compound 1 µM) 34.5% | viability, T/C (second compound 0.03 µM, first compound 0.00316 µM) 17% | viability, T/C (second compound 0.03 µM, first compound 0.01 µM) 14.6% | viability, T/C (second compound 0.03 µM, first compound 0.0316 µM) 14.7% | viability, T/C (second compound 0.03 µM, first compound 0.1 µM) 17% | viability, T/C (second compound 0.03 µM, first compound 0.316 µM) 18.6% | viability, T/C (second compound 0.03 µM, first compound 1 µM) 26.2% | viability, T/C (second compound 0.0949 µM, first compound 0.00316 µM) 10.1% | viability, T/C (second compound 0.0949 µM, first compound 0.01 µM) 11.1% | viability, T/C (second compound 0.0949 µM, first compound 0.0316 µM) 10.2% | viability, T/C (second compound 0.0949 µM, first compound 0.1 µM) 11.3% | viability, T/C (second compound 0.0949 µM, first compound 0.316 µM) 14.9% | viability, T/C (second compound 0.0949 µM, first compound 1 µM) 23.9% | viability, T/C (second compound 0.3 µM, first compound 0.00316 µM) 9.56% | viability, T/C (second compound 0.3 µM, first compound 0.01 µM) 9.57% | viability, T/C (second compound 0.3 µM, first compound 0.0316 µM) 8.56% | viability, T/C (second compound 0.3 µM, first compound 0.1 µM) 10.3% | viability, T/C (second compound 0.3 µM, first compound 0.316 µM) 13.5% | viability, T/C (second compound 0.3 µM, first compound 1 µM) 18.3%

Source: PubChem BioAssay AID2060890 (Molecular Pharmacology Branch, DTP, NCI, 2025)
